These results are taken from patent publication US9532947B2, “Formulation for oral transmucosal administration of analgesic and/or antispasmodic molecules” (priority 2009, dated 2017).

Data set [1] can be described thus: Complete dissolution of active principle in approximately 40° ethanol (dissolution coefficient). It counts as physicochemical. From the text: The expression “stable and completely dissolved state” refers to a solution state rendering the active principle in the molecular and weakly ionized state in its solution medium, this solution state preventing any possibility of inopportune recrystallization. This stable and completely dissolved state may be monitored immediately on use of the formulation of the invention by evaluating the visual appearance of the solution obtained (measurement of the degree of limpidity), then at the level of the filtration residues (appearance or non-appearance of crystals), and finally in the medium-term and long-term during stability tracking tests at varying temperatures and relative humidities.
By way of illustration, the dissolution coefficient of phloroglucinol in ethanol makes it possible to obtain complete dissolution of said active principle at the rate of 20 milligrams (mg) of phloroglucinol in 0.75 mL of approximately 40° ethanol.
Similarly, the coefficient of dissolution of tiemonium methylsulfate in ethanol makes it possible to obtain complete dissolution of said active principle at the rate of 10 mg of tiemonium in 0.75 mL of approximately 40° ethanol. The coefficient of dissolution of nefopam in ethanol makes it possible to obtain complete dissolution of said active principle at the rate of 20 mg of nefopam in 1 mL of approximately 40° ethanol.

The conditions of data set [2]: oral/digestive route, cited from earlier work; for fraction of the orally administered dose that is truly bioavailable (residual part reaching the smooth muscular membranes): coated pill or ODT form, on average at best.

In the case of `COS(=O)(=O)[O-].C[N+]1(CCC(O)(c2ccccc2)c2cccs2)CCOCC1` (stereo not drawn) [tiemonium, tiemonium methylsulfate], the “complete dissolution of active principle at the rate of” value (“complete dissolution” for short) in data set [1] was 10 mg in 0.75 mL. Further, in data set [2], the “fraction of the orally administered dose that is truly bioavailable (residual part reaching the smooth muscular membranes)” value was 10% to 15.
As for `Oc1cc(O)cc(O)c1` [phloroglucinol], the “complete dissolution” value in data set [1] is reported as 20 mg in 0.75 mL. Besides, the “fraction of the orally administered dose that is truly bioavailable (residual part reaching the smooth muscular membranes)” value in data set [2] is on record as 40% to 50.
On to `CN1CCOC(c2ccccc2)c2ccccc2C1` (stereo not drawn) [nefopam], for which the “complete dissolution” value in data set [1] turned out to be 20 mg in 1 mL. For the same molecule, the “truly bioavailable dose of active principle resorbed by the digestive tract” value in data set [2] (all three main metabolites have no pharmacological activity) is on record as “virtually nil”.
